Values after ≈ are worked out from the molar mass of the structure shown. Values joined by “and” are separate entries in the source; they are usually repeats but may differ in a detail not shown here. Identical values can stand only once. Like-named read-outs stand apart in the source and are kept apart here.
Columns and labels:
[1] = tested on: E. coli (NCIB 12210); experiment: Broth micro-dilution method, MIC50/MIC90; assay type: cell-based, Escherichia coli
Method: (§1) The strains used in this study were Escherichia coli (NCIB 12210) and Bacillus subtilis (NCIB 8054) from National Resource Center All-Russian collection of industrial microorganisms SIC “Kurchatov Institute”). The culture was cultivated for 18–20 h at 37 °C to CFU ≈ 5 × 10^6 – 8 × 10^6 (determined by A600) in liquid nutrient medium Luria–Bertani (pH 7.2): E. coli—without stirring, B. subtilis—with stirring 180 rpm.
The study of the antibacterial effect of Lev and adjuvants was carried out by (a) agar diffusion test and (b) broth micro-dilution method. (a) A measured 500 µL of 100-fold culture dilution was evenly distributed over a solid nutrient medium (LB, pH 7.2) on a Petri dish. After 20 min, agar disks with a diameter of 9 mm were removed from the cups and 50 µL of the test samples were placed in the formed wells at the required concentration in a sterile PBS buffer (see Section 3.3 (2)). After 30 min, Petri dishes were placed in a 37 °C thermostat. After 24 h, the diameters of the growth inhibition zones were measured. Minimum inhibitory concentrations (MICs) are determined as the infimum of multiple concentrations of an antimicrobial that inhibits the visible growth of a microorganism after overnight incubation. (b) According to the standard broth micro-dilution method, 200 µL of the overnight culture (5 × 10^6 CFU) was placed into a 96 micro-titer plate wells. Then 50 µL of tested samples was added. The range of tested Lev concentration was 4–200 ng/mL, adjuvants concentration was in the range of 0.008–2 mg/mL. Optical density measurements at 600 nm were taken at various times (0, 3, and 18 h) to determine the number of cells. The dependence of CFU (determined by A600) on the concentration of Lev, APAB or terpenoid (briefly X) was approximated according to the Boltzmann equation (Origin software): CFU = (control CFU)/(1 + exp(([X] − MIC50)/constant value)). MIC50 and MIC90 are defined as concentrations at which the inhibition of bacterial growth by 50 and 90% is noticeable, respectively. […]

[2] = HPCD, cited from earlier work
[3] = tested on: B. subtilis (NCIB 8054); experiment: Agar diffusion test, MIC; assay type: cell-based, Bacillus subtilis; conditions: B. subtilis; for MIC: agar diffusion test, LB pH 7.2, 37 °C, 20 h; for antibacterial activity of CD complex: up to 3–5 mg/mL concentration
Method: as §1
(§2) The study of the antibacterial effect of Lev and adjuvants was carried out by (a) agar diffusion test and (b) broth micro-dilution method. (a) A measured 500 µL of 100-fold culture dilution was evenly distributed over a solid nutrient medium (LB, pH 7.2) on a Petri dish. After 20 min, agar disks with a diameter of 9 mm were removed from the cups and 50 µL of the test samples were placed in the formed wells at the required concentration in a sterile PBS buffer (see Section 3.3 (2)). After 30 min, Petri dishes were placed in a 37 °C thermostat. After 24 h, the diameters of the growth inhibition zones were measured. Minimum inhibitory concentrations (MICs) are determined as the infimum of multiple concentrations of an antimicrobial that inhibits the visible growth of a microorganism after overnight incubation. (b) According to the standard broth micro-dilution method, 200 µL of the overnight culture (5 × 10^6 CFU) was placed into a 96 micro-titer plate wells. Then 50 µL of tested samples was added. The range of tested Lev concentration was 4–200 ng/mL, adjuvants concentration was in the range of 0.008–2 mg/mL. Optical density measurements at 600 nm were taken at various times (0, 3, and 18 h) to determine the number of cells. The dependence of CFU (determined by A600) on the concentration of Lev, APAB or terpenoid (briefly X) was approximated according to the Boltzmann equation (Origin software): CFU = (control CFU)/(1 + exp(([X] − MIC50)/constant value)). MIC50 and MIC90 are defined as concentrations at which the inhibition of bacterial growth by 50 and 90% is noticeable, respectively. In other words, the concentration at which the ordinate value (CFU) is equal to 50 or 10% of the control sample minus the background.

[4] = MCD, cited from earlier work; for EE, %: C(MCD) = 0.01 M
[5] = tested on: E. coli (NCIB 12210); experiment: Agar diffusion test, MIC; assay type: cell-based, Escherichia coli; conditions: for MIC: LB pH 7.2, 37 °C, 20 h; for antibacterial activity of CD complex: up to 3–5 mg/mL concentration
Method: as §1, §2

[6] = tested on: B. subtilis (NCIB 8054); experiment: Broth micro-dilution method, MIC50/MIC90; assay type: cell-based; conditions: Bacillus subtilis, NCIB8054
Method: as §1
The study of the antibacterial effect of Lev and adjuvants was carried out by (a) agar diffusion test and (b) broth micro-dilution method. (a) A measured 500 µL of 100-fold culture dilution was evenly distributed over a solid nutrient medium (LB, pH 7.2) on a Petri dish. […] After 24 h, the diameters of the growth inhibition zones were measured. Minimum inhibitory concentrations (MICs) are determined as the infimum of multiple concentrations of an antimicrobial that inhibits the visible growth of a microorganism after overnight incubation. […] The dependence of CFU (determined by A600) on the concentration of Lev, APAB or terpenoid (briefly X) was approximated according to the Boltzmann equation (Origin software): CFU = (control CFU)/(1 + exp(([X] − MIC50)/constant value)). […]

[7] = physchem; conditions: 22 °C, pH 6.2, water
Method: (§3) (3) Solubility of X in water C0 = [Xaq] = A/(ε · l) was determined by UV absorbance after centrifugation of samples (10 min, 10,000× g). l = 1 cm. ε—molar absorbance coefficient (Figure 1C).

[8] = tested on: E. coli; experiment: Synergy of adjuvant-MCD with Lev-MCD, growth inhibition zones in agar; assay type: cell-based, Escherichia coli; conditions: E. coli; for D, diameter of bacterial inhibition zone surrounding Lev–MCD with APAB-MCD / ϕLev = (D/DLev)^2 / FICI: CLev 0.1 μg/mL; for D, diameter of bacterial inhibition zone surrounding Lev–MCD with APAB-MCD: Lev-MCD + X-MCD (1:2), ±0.5; for ϕLev = (D/DLev)^2: ±0.1; for FICI: ±15%
Method: We obtained complex formulations containing adjuvants-MCD and Lev-MCD. These complexes were referred to as enhanced Lev. The synergy effect was studied at a constant concentration of Lev and a variable concentration of an enhancer. […] Based on the D/DLev ratio, the effectiveness of cooperative antibacterial action (ϕ) of the adjuvant and Lev was calculated. The fractional inhibitory concentration (FIC) parameter was introduced: at a fixed Lev concentration, the FIC of adjuvant corresponds to the minimum fractional adjuvant concentration at which the antibacterial effect was still manifest (MICadjuvant in the presence of Lev). The fractional inhibitory concentration index (FICI) characterizes the ratio of the active Lev and adjuvant concentrations to the MIC values of these substances individually: FICI=[Lev]/MIC(Lev)[…][adjuvant]/MIC(adjuvant) (see Section 3).
The FICI was interpreted as: synergism (<0.35), additivity (0.35–0.75), indifference (0.75–1.4), or antagonism (>1.4). FICI is designed to determine the type of Lev interaction with adjuvants.
as §2, with “After 24 h, the diameters of the growth inhibition zones were measured.” left out, “Optical density measurements at 600 nm were taken at various times (0, 3, and 18 h) to determine the number of cells.” left out, “MIC50 and MIC90 are defined as concentrations at which the inhibition of bacterial growth by 50 and 90% is noticeable, respectively.” left out
The FICI was interpreted as: synergism (<0.35), additivity (0.35–0.75), indifference (0.76–1.4), or antagonism (>1.4). The essence of this expression is to calculate the average change in the effective concentration compared to MIC. Note that the most important parameter corresponds to a decrease in MIC of Lev. However, FICI is designed to determine the type of interaction Lev with adjuvants.

[9] = Formation of inclusion complexes with MCD (UV spectroscopy, Hill linearization); assay type: physicochemical; conditions: for EE, % / LC, % / n: MCD; for EE, % / LC, %: C(MCD) = 0.01 M, pH 6.2, 22 °C; for n: Xaq + n MCDaq ⇌ X·nMCDaq, 5 mM sodium phosphate buffer pH 6.2, 22 °C
Method: To optimize the system composition, similar experiments were carried out on the formation of EG and apiol inclusion complexes with HPCD (Figure S1). […] According to these changes, the dissociation constants of the EG–HPCD and apiol–HPCD complexes (Figure S2) were calculated by Hill’s equation (Table 1). […] The physicochemical parameters of the interaction of APAB and terpenoids (X) with CD were studied by determining the concentration of substances in the aqueous fraction ([APAB] + [APAB-MCD]) according to the calibration dependence (Figure 1C) for systems with a constant amount of the essential oil component X and the concentration gradient MCD (Table 1). Theta (θ) is a fraction of the bound substance X:θ = [X-MCD]/([X-MCD] + [X]) and was calculated based on the dependence of the absorption intensity X on the MCD concentration in the system in the form of a sigmoidal Hill curve with subsequent linearization (Section 3, Section 3.3 and Section 3.4).
The molar excess of CD varied from 0.04 to 10). Further, the complexes were incubated for 1 h at 37 °C and then centrifuged ([…], 15 min, Eppendorf tubes) to separate the insoluble fractions. Complexes were studied by UV and FTIR spectroscopy.
UV spectra of solutions (point 3.3.1) were recorded on the AmerSham Biosciences UltraSpec 2100 pro device (USA) three times in the range of 200–400 nm in a quartz cell Hellma 100–QS with an optical path of 1 cm. Background spectrum (5 mM sodium phosphate buffer (pH 6.2) with 50% EtOH) was subtracted as a blank.
(1) Calculation of the dissociation constants X–MCD and X–HPCD, where X is a “guest” compound, considering the equilibrium: Xaq + n MCDaq ↔ X·nMCDaq, where Kd = [MCDaq]^n · [Xaq]/[X·nMCDaq].
First, fitting of the curves of change of the analytical signal ξ (peak intensity or peak position) versus concentration of the MCD or HPCD or was carried out using the Hill equations: (1) ξ = ξ∞ · [MCD]^n/([MCD]^n + K^n), where ξ∞—horizontal asymptote; (2) ξ = ξ0 + (ξ∞–ξ0) · [MCD]^n/([MCD]^n + K^n). Second, calculation n and Kd values by Hill’s linearization in n-binding site model: lg (θ/(1 – θ)) = n · lg [L] – lg Kd, where θ = |(ξ – ξ0)/(ξ∞ − ξ0)|is a fraction of the bound substance. N in Hill equation—number of drug molecules per CD torus.
Calculations for the following items are performed when [MCD] = 0.01 M.

[10] = Solubility of X in water and in the presence of MCD/HPCD (UV absorbance); conditions: 22 °C, pH 6.2, water
Method: as §3

[11] = Escherichia coli, NCIB12210, broth micro-dilution

Row | Structure (SMILES) | solubility [7] [µM] | decrease of MICLev in the presence of adjuvant [8] | D, diameter of bacterial inhibition zone surrounding Lev–MCD with APAB-MCD [8] [mm] | ϕLev = (D/DLev)^2 [8] | FICI [8] | EE, % [9] [%] | LC, % [9] [%] | n [9] | antibacterial activity of CD complex [3] | antibacterial activity of CD complex [5] | also measured
1 | C[C@H]1COc2c(N3CCN(C)CC3)c(F)cc3c(=O)c(C(=O)O)cn1c23 [Levofloxacin] |  |  |  |  |  |  |  |  |  |  | MIC50 [1, 11]: 0.01 ± 0.002 µg/mL (≈ 0.0277 µM); MIC90 [1, 11]: 0.025 ± 0.004 µg/mL (≈ 0.0692 µM); improvement of the effect of Lev by MCD ([1]; broth micro-dilution test): 30%; EE, % ([2]; 0.01 M): 91 ± 15%; LC, % [2]: 24.1 ± 0.5%; MIC ([3]; listed as Lev): 0.45 ± 0.05 µg/mL (≈ 1.25 µM); MIC ([3]; Bacillus subtilis, NCIB8054, read-out: MIC): 0.45 µg/mL (≈ 1.25 µM); EE, % [4]: 99 ± 12%; EE, % ([4]; listed as Lev): more than 90%; LC, % [4]: 28.3 ± 0.4%; MIC ([5]; Escherichia coli, NCIB12210, agar diffusion test, read-out: MIC): 0.1 µg/mL (≈ 0.277 µM); MIC ([5]; agar diffusion test, listed as Lev): 0.10 µg/mL and 0.10 ± 0.01 µg/mL; MIC50 [6]: 0.03 ± 0.01 µg/mL (≈ 0.083 µM); MIC90 [6]: 0.08 ± 0.02 µg/mL (≈ 0.221 µM)
2 | C=CCc1cc(OC)c2c(c1)OCO2 [Myristicin] | 30 ± 7 (≈ 5.77 µg/mL) | 1.25–1.5 times | 13.25 | 1.2 | 0.04 | 99 ± 5 | 22 ± 2 | 0.67 ± 0.06 | inactive | inactive | molar ratio APAB:CD of inclusion complexes [9]: 2 to 1; EE, % ([9]; listed as myristicin): more than 90%
3 | C=CCc1cc2c(c(OC)c1OC)OCO2 [Dillapiol] | 240 ± 50 (≈ 53.3 µg/mL) | 1.25–1.5 times | 13.75 | 1.3 | 0.04 | 56 ± 10 | 13 ± 1 | 1.3 ± 0.2 |  |  | 
4 | C=CC(C)(O)CCC=C(C)C (centres unmarked) [Linalool] | 300 ± 50 (≈ 46.3 µg/mL) |  |  |  |  | 80 ± 7 | 10 ± 1 | 1.2 ± 0.2 | inactive | inactive | 
5 | C=CCc1cc(OC)c(OC)c(OC)c1OC [Allyltetramethoxybenzene] |  | 1.25–1.5 times | 12 | 1.1 | 0.50 | 45 ± 4 | 11 ± 1 | 1.74 ± 0.11 | inactive | inactive | solubility [10]: 160 ± 20 µM
